Experimental data as given in ChEMBL document CHEMBL3507680, “University of Dundee, Gates Library screen for HepG2 cell viability”.

assay: Human HepG2 cell viability assay in 384 well format; format: toxicity, cell-based; set-up: dose 125 nL, time 70.5 hour; cytotoxicity at 70.5 h: concentration not given beside the values; settings: HepG2 cells, read-out: Inhibition

SMILES | cytotoxicity at 70.5 h
CN1CCN(C(=O)Cc2cccc(F)c2)Cc2cccnc21 | -5.94%
CNS(=O)(=O)c1ccc(CN2CCC(c3ccncc3)CC2)cc1 | -14.4%
CN(Cc1ccncc1)Cc1cnn(-c2ccc(F)cc2)c1 | -13.3%
O[C@]12CCNC[C@H]1CN(c1nccc3ccccc13)CC2 | 22.6%
CCn1nc(C)c2ncnc(NCCCN3CCOCC3)c21 | 6.44%
CC1(C)OCC2(CO1)CN(C(=O)c1cccc3ccccc13)C2 | -8.48%
CNCCc1nc2cc(Cl)ccc2[nH]1 | 16.5%
COCC(=O)N1CCN(Cc2coc(-c3cccc(F)c3)n2)CC1 | -6.62%
Cc1ccc(-c2ccnc(N(C)CC3CCCN3C)n2)c(C)n1 (stereo not drawn) | 16.3%
O=C(CN1CCC(OCC2CCCO2)CC1)NCC(F)(F)F (stereo not drawn) | -7.24%
COc1ccc(C(C)NCCc2ccc(NC(C)=O)cc2)c(OC)c1 (stereo not drawn) | 0.0966%
CCn1ncc2c1CCCC2NCc1cccc2c1OCCO2 (stereo not drawn) | -13.8%
Cc1cc(NCCS(C)(=O)=O)n2nc(C)cc2n1 | 4.45%
Cc1ccc(CC(=O)N2CCOCC2c2ncon2)cc1 (stereo not drawn) | -5.42%
Cc1noc(C)c1CN1CCN(C)c2ncccc2C1 | -5.95%
CN(C)C(CNCc1nc(-c2ccsc2)no1)c1cccc(F)c1 (stereo not drawn) | -10.2%
O=C1CCC(C(=O)N2CCOC(Cc3ccccc3Cl)C2)=NN1 (stereo not drawn) | -8.63%
CC(C)c1ccc(OCCC(=O)N2CCC(C(=O)N(C)C)CC2)cc1 | -3.99%
CC(=O)Nc1cccc([C@H]2C[C@@H](NC(C)=O)CCO2)c1 | 13.2%
CCc1ccccc1NC(=O)NCc1nnc(SC)n1C | -5.85%
CC(Nc1nc2c(cnn2C)c(=O)[nH]1)c1ccc2c(c1)CCCC2 (stereo not drawn) | -3.73%
COc1cc(CNCC(O)c2ccccc2)cc2c1OCO2 (stereo not drawn) | 3.15%
NC(=O)C(NC1CCN(CC2CCCCC2)CC1)c1ccccc1 (stereo not drawn) | -4.82%

SMILES | cytotoxicity at 70.5 h
Cc1ccc(C(=O)N(C)C)cc1NC(=O)COCC1CC1 | -6.84%
O=C1[C@@H]2CCN(Cc3ccoc3)C[C@@H]2OCCN1c1cccnc1 | -13.5%
O=C(c1ccco1)N1CCCC2(C1)CN(c1nncs1)CCO2 (stereo not drawn) | -5.17%
Cn1cnc(S(=O)(=O)N2CCOCC2)c1Cl | -3.62%
Cc1n[nH]c(C)c1-c1c(C#N)c(N)nc2c1CCc1[nH]ccc1-2 | -3.53%
COCCn1/c(=N\C(=O)CN(C)S(C)(=O)=O)sc2cc(OC)ccc21 | 17.2%
Cc1cnn(CC2CCCN2CC(=O)Nc2cc(C)no2)c1 (stereo not drawn) | -3.79%
CC(C)N1CCO[C@H]2CN(C(=O)c3ccccn3)C[C@H]21 | -7.58%
CN(CC(=O)N1CCCCC1c1nccs1)C1CC1 (stereo not drawn) | 28.5%
CCOc1ccc(NC(=O)N2CCOC(C(N)=O)C2)cc1Cl (stereo not drawn) | 2.49%
CCc1nc2n(n1)CCCC2NC(=O)Nc1cccc(F)c1F (stereo not drawn) | 4.24%
CCCc1nnsc1C(=O)NCC(O)c1ccc(SC)cc1 (stereo not drawn) | 28.8%
Cc1nn(C)c(C)c1CN(C)C(=O)c1cc(NC(=O)C2CC2)n(C)n1 | -8.63%
CCS(=O)(=O)N1C[C@H](c2nc(C)no2)C[C@H]2OCC[C@H]21 | 5.21%
CCc1nc(C)c(C(=O)N2C[C@H]3CC[C@@H]2CN(S(=O)(=O)N(C)C)C3)s1 | 8.88%
CCN(CC)C(=O)CSc1nc2cc(C)nc-2c(O)n1CC | 6.98%
Cc1cccc(CN2CCC23CCCNC3)n1 (stereo not drawn) | -9.59%
O=c1[nH]cc(Nc2ccc(Cl)cc2)c(=O)[nH]1 | 29.9%
Cc1nc(N2CCN(C(=O)C3CCCC3)CC2)c2c(n1)c(C)nn2C | -0.908%
CCc1n[nH]c(C2CN(C(=O)CCOCC(F)(F)F)CCO2)n1 (stereo not drawn) | -12.9%
Cc1cccc(NC(=O)N2Cc3c(CN(C)C)nn(C)c3C2)c1 | -3.74%
Cc1nnc2n1CC(CNCc1nc(-c3ccsc3)no1)CC2 (stereo not drawn) | -14.6%
O=C(NC1CC1)c1cnc2n1CCCC2 | 6.87%

SMILES | cytotoxicity at 70.5 h
O=S(=O)(Nc1ccc(N2CCOCC2)cn1)c1ccc(F)cc1 | 9.02%
O=C(c1cnc2c(cnn2C2CCCC2)c1)N1CCN(CCO)CC1 | 2.02%
CC(C)NC(=O)N1CCN(Cc2ccccn2)CC2(CC(=O)N(C)C2)C1 (stereo not drawn) | 22.3%
Cn1ncc2c1NC(=O)CC2c1ccc(F)cc1 (stereo not drawn) | 1.96%
CS(=O)(=O)N1CC(c2n[nH]c3ncccc23)C1 | -1.49%
CC1CCCN1C1CCN(C(=O)c2cccc(F)c2)CC1 (stereo not drawn) | 6.94%
Cc1ccc(N2CCCC(N(C)Cc3c(C)noc3C)C2)nn1 (stereo not drawn) | 25.3%
Cc1ccc2c(c1)SCC(=O)N2Cc1noc(C2CC2)n1 | 16.3%
Cc1cc(C(=O)N2CC[C@@H](N(C)C)[C@@H]2Cc2ccccc2)no1 | -0.0942%
CS(=O)(=O)NC[C@H]1OC[C@@H]2CCN(CCc3ccccc3)C[C@@H]21 | 17.3%
C[C@@H]1C[C@H](C(F)(F)F)n2nc(C3CCN(S(=O)(=O)N(C)C)CC3)cc2N1 | -5.83%
CN(Cc1cn(CC2CCNCC2)nn1)CC1CCCCO1 (stereo not drawn) | -8.15%
Cc1noc([C@@]23CCO[C@@H]2CCN(C(=O)CN(C)C)C3)n1 | -0.0937%
CCn1ccc(C(=O)N2CCCC2c2nnc(-c3scnc3C)o2)n1 (stereo not drawn) | -6.79%
Cc1ccc(CN2CCOC3(COCCN(C(C)C)C3)C2)o1 (stereo not drawn) | -12.3%
CCC(CN1CCCC1)NC(=O)Cc1c(C)[nH]c2c(C)cc(C)cc12 (stereo not drawn) | 12.8%
Cc1c[nH]nc1C1CCCN(c2cnccn2)C1 (stereo not drawn) | -2.27%
O=C1CCC2(CCN(CC[C@H](O)c3ccccc3)CC2)CN1CCO | 1.6%
CSCC[C@H](NC(C)=O)C(=O)N(C)Cc1ccc(-n2cccn2)cc1 | 23.9%
O=c1[nH]c2ccc(S(=O)(=O)N(CCO)Cc3ccncc3)cc2[nH]1 | -4.4%
CCc1nc(CCNC(=O)Nc2ccc(C(=O)NC)cc2C)cs1 | 13.7%
Cc1cnc(CCNC(=O)C2CN(C(=O)Cc3ccc(F)cc3)C2)s1 | 15.9%
CCN1Cc2c(C(=O)NC)ncn2-c2ccccc2S1(=O)=O | -6.74%

SMILES | cytotoxicity at 70.5 h
COc1ccccc1OC1CN(C(=O)C(c2ccc(F)cc2)N(C)C)C1 (stereo not drawn) | -1.1%
Cc1cc(=O)[nH]cc1C(=O)N1Cc2ccccc2N(C)CC1C (stereo not drawn) | 26%
CCOC(=O)N1[C@@H](c2ccco2)[C@@H](CO)C[C@]12CCCCNC2=O | -6.22%
CCCN1CCC(NC(=O)Nc2ccc(OC)c(OC)c2)CC1 | -1.26%
Cc1ccc(NC2CCN(C(=O)c3nccc4ccccc34)CC2)nn1 | -4.93%
O=C([C@@H]1C[C@@H]2CCN(Cc3ccoc3)C[C@H]2O1)N1CCCC1 | -2.05%
Cc1nc2cc(O)nn2c(C)c1CCC(=O)N(C)Cc1cscn1 | 30.1%
COCCN(C)[C@@H]1c2ccccc2C2(CCNCC2)[C@H]1O | -4.67%
COCCc1noc(CN2CCN(c3ccc(OC)cc3)C(=O)C2C)n1 (stereo not drawn) | -15.8%
CN(C)CCN1CCO[C@H]2CN(C(=O)N(C)C)C[C@H]21 | 24.8%
CC(C)(C)OC(=O)N1CC(CC(=O)NCc2ccnc(C3CC3)c2)C1 | -8.99%
Cc1nnc([C@]23COC[C@H]2CN(Cc2cnn(C)c2)C3)o1 | -4.29%
CC(NC(C)(C)CN)c1ccccc1 (stereo not drawn) | -0.00601%
CCn1ncc(S(=O)(=O)NC(C)c2cc(OC)ccc2OC)c1C (stereo not drawn) | 20.2%
Cc1nnc2n1CCN(C(=O)C1CCC(n3cccc3)CC1)C2 (stereo not drawn) | -8.85%
Cc1nccn1-c1cc(CNC(=O)CCC2CCCO2)ccn1 (stereo not drawn) | 43.5%
Cc1ccc(C(=O)N2CCN3C[C@H](Oc4cccc(F)c4)C[C@H]3C2)cn1 | -2.95%
COc1ccc(OCC(O)CN2CCN(c3nccs3)CC2)cc1 (stereo not drawn) | -2.04%
COC(=O)c1cc(NS(=O)(=O)c2cn(C)cn2)c(F)cc1F | -2.67%
CC(C)NC(=O)CS(=O)(=O)Cc1coc(-c2ccc(F)cc2)n1 | -17.8%
CC1=CC[C@@H]2CN(C(=O)c3ccc(-c4nnn(C)n4)cc3)C[C@@H]2C1 | 6%
CC1CN(CCOc2ccccc2C#N)CCN1Cc1nccn1C (stereo not drawn) | -12.6%
CC(C)CC(=O)N1CCC2(CC1)[C@@H]1CN(C(=O)N(C)C)C[C@@H]1C(=O)N2C | -3.34%

SMILES | cytotoxicity at 70.5 h
CSc1ccc(NC(=O)Cn2cc(N)cn2)cc1 | -6.5%
Cc1ccc(C(NCC(=O)N2CCNC(=O)C2)c2ccccc2)cc1 (stereo not drawn) | -104%
CN(C)C(=O)COCC1CN(S(C)(=O)=O)Cc2ncn(C)c21 (stereo not drawn) | -6.55%
CC(=O)Nc1nc(CN2CCCC2c2cnn(C)c2)cs1 (stereo not drawn) | 31.4%
CCN1CC2(CCC1=O)CCN(Cc1cscn1)CC2 | -10.8%
CCN1CCN(C2CCN(Cc3noc(C)n3)CC2)C1=O | 28.4%
CN(CCNC(=O)Nc1nccs1)Cc1ccc(F)cc1 | -13.1%
COc1cccc(SCC(=O)N2CCCC(N3CCCC3=O)C2)c1 (stereo not drawn) | -1.58%
Cc1nn(C)c(C)c1-c1c(-c2ccccc2)ncn1[C@H](CO)C(=O)O | -4.59%
CCNC(=O)N1CCC(OC)c2ccccc2N(CC(=O)NC)C(=O)C1 (stereo not drawn) | -2.79%
Cc1ccccc1CSCCn1nc2ccccn2c1=O | -9.36%
Cc1cnc(CN(C)C2CCN(CC(=O)Nc3nncs3)C2)o1 (stereo not drawn) | 17.3%
COC(=O)CCC(=O)NC(C)Cc1ccccc1Br (stereo not drawn) | -4.19%
Cn1ncnc1CNC(=O)N(CCCO)C1CCc2ccccc21 (stereo not drawn) | -6.34%
CN(C)Cc1cnc(C2CCN(C(=O)c3ccccc3F)C2)[nH]1 (stereo not drawn) | -3.2%
O=C(c1cnc(Nc2ccccc2)nc1)N1CCCC2(CCNC2)C1 (stereo not drawn) | -8.38%
CCC(O)CN1CCN(C(=O)c2cc3ccccc3n2CC)CC1 (stereo not drawn) | 12.7%
COc1c(C2CCCN2C(=O)c2ccnc(C)n2)c(C)nn1C (stereo not drawn) | -12.9%
O=C(NC1CCC1)C1=NOC2(CCN(Cc3ccco3)C2)C1 (stereo not drawn) | 6.54%
CC(C)CS(=O)(=O)CCNc1ncccn1 | -4.65%
COCCNc1nc2c(c(NCc3ccncc3)n1)CCNCC2 | -7.33%
